Tests used:
[1] = (§1) MMV: Anti-babesial activity assay. Parasite pRBCs at 1% parasitemia were cultivated in 100 ul with 96-well plates at 2.5% and 5% hematocrits. The parasites were cultivated in triplicate for 4 days without replacement of the medium for each concentration of the compound.; assay type: functional, Babesia bovis
[2] = as §1; assay type: functional, Babesia caballi
[3] = as §1; assay type: functional, Babesia bigemina
[4] = as §1; assay type: functional, Babesia equi

SMILES	IC50 [1]	IC50 [2]	IC50 [3]	IC50 [4]
c1ccc(/C2=N/c3ccccc3/N=C(/c3ccccc3)c3ccccc32)cc1	17700 nM	4.91 µM	10 µM	15.2 µM
CCOC(=O)C1=C(C)N=c2sc(=Cc3ccccc3O)c(=O)n2C1c1ccc(OC)c2ccccc12 (stereo not drawn)	21700 nM	8.43 µM	16 µM	10 µM
CCOC(=O)C1=C(C)N=c2sc(=Cc3cc(Cl)ccc3O)c(=O)n2C1c1ccc(OC)cc1 (stereo not drawn)	18000 nM	15.9 µM	14.1 µM	14.6 µM
FC(F)(F)c1cccc(Nc2nc3ccccc3nc2Nc2cccc(C(F)(F)F)c2)c1	140 nM	4.27 µM	3.45 µM	4.13 µM
COc1ccc(CN2CCCC(C(=O)c3ccc(C(F)(F)F)cc3)C2)c(O)c1 (stereo not drawn)	210 nM	16.5 µM	19.8 µM	3.86 µM
O=C(NC1CCCCC1)C(c1cccs1)N(CCc1ccccc1)C(=O)c1ccco1 (stereo not drawn)	8800 nM	10.7 µM	10.7 µM	14.1 µM
COc1ccc(C(=O)NC(c2ccc(Cl)cc2Cl)c2cc(Cl)c3cccnc3c2O)cc1 (stereo not drawn)	860 nM	4.68 µM	3.05 µM	1.39 µM
Brc1ccc(Nc2nc3ccccc3nc2Nc2ccc(Br)cc2)cc1	2090 nM	5.09 µM	3.73 µM	4.53 µM
O=C(NCCCN1CCC(N2CCCCC2)CC1)C1=Cc2cc(Br)ccc2OC1	1000 nM	4.13 µM	0.08 µM	5.09 µM
Cc1ccnc(NC(c2cccc(OCc3ccccc3)c2)c2ccc3cccnc3c2O)c1 (stereo not drawn)	1900 nM	4.17 µM	13.8 µM	1.4 µM
Nc1ccc(-c2nc3cc(Cc4ccc5[nH]c(-c6ccc(N)cc6)nc5c4)ccc3[nH]2)cc1	86 nM	1 µM	9.04 µM	0.8 µM
N=c1c2ccccc2nnn1-c1cccc(C(F)(F)F)c1	15000 nM	18.1 µM	19.1 µM	9.18 µM
COc1cc(-c2nc(-c3ccc(Sc4ccccc4)cc3)c(-c3ccccc3)[nH]2)cc(OC)c1O	7540 nM	3.45 µM	16.5 µM	12 µM
O=c1cc(NC2CCN(CCCc3ccccc3)CC2)c2cc(Cl)ccc2o1	18200 nM	16.5 µM	10 µM	8.77 µM
COc1ccc(C2NCCc3c2[nH]c2ccccc32)cc1CN1CCN(c2ccc(F)cc2)CC1 (stereo not drawn)	3710 nM	10 µM	16.5 µM	10.1 µM
CCOC(=O)c1cnc2ccc(Cl)cc2c1NCCCN(C)C	420 nM	0.11 µM	5.51 µM	3.86 µM
c1ccc2c(NCCc3c[nH]c4ccccc34)c3ccccc3nc2c1	710 nM	0.21 µM	1.03 µM	1.39 µM
CCN(CC)CCCNc1ccnc2cc3ccccc3cc12	2700 nM	25 µM	1.3 µM	15.9 µM
O=C1c2ccccc2C2=Nc3ccccc3SC(c3cccc(F)c3)C12 (stereo not drawn)	310 nM	0.13 µM	5.3 µM	14.8 µM
CCOC(=O)c1cnc2c(C)cccc2c1Nc1ccc(C(C)=O)cc1	19600 nM	6.08 µM	> 25 µM	12.6 µM
Cc1ccc(-c2nc3ccccc3o2)cc1NCc1cc(Cc2ccccc2)ccc1O	7130 nM	1.05 µM	1 µM	9.67 µM

SMILES	IC50 [1]	IC50 [2]	IC50 [3]	IC50 [4]
Cc1ccc(C2CC(C(F)(F)F)n3nc(C(=O)N4CCN(C(c5ccccc5)c5ccccc5)CC4)cc3N2)cc1 (stereo not drawn)	9550 nM	0.98 µM	15.9 µM	12.6 µM
COc1ccc(C(O)(CCC(C)C)C(CN2CCOCC2)c2ccc(Cl)cc2)cc1 (stereo not drawn)	91 nM	14.8 µM	0.068 µM	3.45 µM
CCCCCCn1c(=N)n(CC(O)COc2cccc(C)c2)c2ccccc21 (stereo not drawn)	83 nM	15.9 µM	2.95 µM	3.73 µM
COc1ccc(-c2cc(=O)oc3c4c(ccc23)OCN(Cc2ccc(F)cc2)C4)cc1	2950 nM	0.071 µM	0.29 µM	14.8 µM
CCCOCc1cc(CN2CCN(c3cccc(Cl)c3)CC2)c(O)c2ncccc12	1740 nM	5.9 µM	3.86 µM	2.95 µM
Oc1ccc(C(=C(Cl)Cl)c2ccc(O)cc2)cc1	15900 nM	21.1 µM	> 25 µM	13.8 µM
CCCCC(O)(c1ccc(Cl)cc1)C(CN1CCOCC1)c1ccc(Cl)cc1 (stereo not drawn)	11900 nM	0.55 µM	0.1 µM	13.2 µM
COc1ccc(OC)c(C2C3=C(CC(C)(C)CC3=O)N(c3ccc(Cl)c(Cl)c3)C3=C2C(=O)CC(C)(C)C3)c1	10000 nM	0.14 µM	17.8 µM	10.7 µM
COc1ccc(C(=O)NC(c2ccccc2Cl)c2cc(Cl)c3cccnc3c2O)cc1 (stereo not drawn)	190 nM	17.5 µM	15.9 µM	0.42 µM
Cc1cccc(N2C(=O)C3C(C2=O)C2(c4ccccc4)C(=O)C3(c3ccccc3)C(c3ccc4c(c3)OCO4)=C2c2ccc3c(c2)OCO3)c1 (stereo not drawn)	17000 nM	5.5 µM	25 µM	13.9 µM
Cc1cc(=O)oc2c1ccc1oc(C(=O)c3ccccc3)c(C)c12	10100 nM	5.69 µM	11.9 µM	12.1 µM
CCCc1c(C)nc2ccc(Br)cc2c1O	16500 nM	0.1 µM	11.9 µM	13.3 µM
COc1ccc(CCNC(=O)c2cc(S(=O)(=O)N3CC(C)CC(C)C3)ccc2Sc2ccc(F)cc2)cc1OC (stereo not drawn)	1000 nM	0.13 µM	0.086 µM	12.7 µM
Cc1ccc(F)cc1NC(=O)c1cc(Cl)ccc1Nc1ccccc1	18600 nM	2.56 µM	10.2 µM	> 25 µM
CC1=C(CC(=O)c2cccc([N+](=O)[O-])c2)C(=O)c2ccccc2C1=O	360 nM	6.86 µM	0.49 µM	4.85 µM
OC1CCCCC1C1(NC(=S)Nc2ccccc2)CCCCC1 (stereo not drawn)	1410 nM	14.1 µM	0.93 µM	5.09 µM
COc1cc(OC)cc(N2C(=O)N(Cc3ccc(C(C)(C)C)cc3)c3ccccc3S2(=O)=O)c1	1000 nM	7.54 µM	0.19 µM	13.3 µM
COc1ccc(C(=O)C2CC2c2ccc(Cl)cc2)cc1 (stereo not drawn)	5970 nM	14.6 µM	6.72 µM	16.1 µM
CCCCCn1c(=N)n(CC(O)COc2cccc(C)c2)c2ccccc21 (stereo not drawn)	80 nM	5.9 µM	0.1 µM	4.52 µM
COc1ccccc1N1C(=N)SC(=Cc2ccc(OCc3ccccc3F)cc2)C1=O	18600 nM	17.1 µM	10 µM	16.1 µM
Cc1ccc(S(=O)(=O)c2c(COC(=O)c3cccc(C)c3)c(-c3ccccc3)nn2C)cc1	68 nM	20.4 µM	1 µM	12.7 µM
